Results as given in patent publication US20240033358A1, “COMBINATION THERAPIES WITH CHIMERIC ANTIGEN RECEPTOR (CAR)-EXPRESSING CELLS” (Novartis AG, priority 2020, published 2024).

Columns and labels:
[1] = system: SuDHL6 cells implanted subcutaneously; assay: In vivo double-hit lymphoma model: tumor volume after CART19 cells and/or BCL2 inhibitor; parameters: species or system NOD scid gamma (NSG) mice; details: treatment from day 15 post-implant; venetoclax 100 mg/kg daily; 1e6 CART19 cells; versus PBS vehicle, UTD or CART19 alone
Protocol: NOD scid gamma (NSG) mice were implanted subcutaneously with a dose of 5e6 SuDHL6 cells/mouse. At day 15 post-implant, mice were randomized into treatment groups, which included: PBS vehicle negative control (FIG. 10A); PBS vehicle and 100 mg/kg of the BCL2 inhibitor, venetoclax (FIG. 10A); 1.45e6 untransduced T cells containing no CAR (UTD) (FIG. 10B); 1.45e6 untransduced T cells containing no CAR (UTD) and 100 mg/kg of the BCL2 inhibitor, venetoclax (FIG. 10B); 1e6 CART19 cells (which were at 68% positivity, total cells injected were 1.45e6) (FIG. 10C); and 1e6 CART19 cells and 100 mg/kg of the BCL2 inhibitor, venetoclax (FIG. 10C). The BCL2 inhibitor was administered daily until sacrifice. Tumor growth was monitored in these mice every three days. Tumor volume was quantified by caliper measurement at each timepoint sampled (FIGS. 10A-C).

[2] = system: adult patients with r/r DLBCL; assay: JULIET phase 2 trial of tisagenlecleucel: efficacy outcomes (BOR, M3 response, DOR, PFS, OS), safety and B-cell recovery, overall and by subgroup (MYC, DH/TH, TME, pre-infusion LDH); assay type: in vivo, human; details: for probability of PFS: MYC(−) patients with normal pre-infusion LDH (n=16); for Survival probability: all infused patients
Excerpt: Methods: JULIET (NCT02445248) was a global, phase 2 trial of autologous anti-CD19 CAR-T cell therapy in adult patients with r/r DLBCL (relapsed or refractory to ≥2 prior lines of therapy). Median follow-up was 40.3 months. The relationship between MYC overexpression, tumor microenvironment (TME) characteristics (including CD3+ T-cell infiltration, myeloid-derived suppressor cells [MDSCs], and LAG3 expression by fluorescent immunohistochemistry [IHC]), activated B-cell/germinal center B-cell [ABC/GCB] subtype, double/triple-hit (DH/TH) status, and gene mutations including TP53 with efficacy outcomes (best overall response [BOR], response at Month 3 [M3], progression-free and overall survival [PFS/OS]) were assessed. Results: 115 patients received autologous anti-CD19 CAR-T cell infusion. Among patients who were in CR at 6 months, 86% were estimated to maintain the response at 36 months. […] Median OS among all 115 infused patients was 11.1 months (95% CI, 6.6-23.9). […] Median OS of patients with CR (n=37) or PR (n=7) at M3 was not reached; 80% of patients with complete response (CR) had OS benefit≥20 months. […] Of the 23 patients with ongoing CR and B-cell count available, 11 had CD19+ B cells recovered back to normal (80 cells/μL) after 1 year, with similar patterns observed for CD20+ and CD22+ B cells (FIG. 21). The 24 month and 42 month PFS was 33% and 31% respectively (FIG. 16).
Of the 111 patients whose baseline tumor biopsies were tested for MYC expression by immunohistochemistry (IHC), 73 patients were positive for MYC expression (MYC(+) defined as >40% of cells expressing MYC, as measured by IHC) and 38 patients were negative for MYC expression (MYC(−) defined as <40% of cells expressing MYC, as measured by IHC). BOR rates for MYC(+) and MYC(−) patients were 44% (95% CI, 32-56) and 63% (95% CI, 46-78), respectively; M3 response rates were 30% (95% CI, 20-42) and 50% (95% CI, 33-67), respectively (Table 6, and FIG. 14). By month 6, 18/38 (47%) MYC(−) patients were CR/PR compared to 18/73 (25%) of MYC(+) patients. DOR was in a plateau phase at 79% starting in MYC(−) patients (n=24) at 6 months. […] Thus, MYC(+) patients tended to have shorter PFS and OS compared with MYC(−) patients and a high-baseline of MYC expression in patients prior to treatment was associated with worse PFS and OS (FIGS. 4A-4C).
Of the 73 MYC(+) patients, 70 of them were also tested for rearrangements in MYC, BCL2, and BCL6 by FISH in order to identify double hit (DH) (MYC/BCL2 or MYC/BCL6) or triple hit (TH) (MYC/BCL2/BCL6) lymphomas. Of the 70 MYC(+) patients, 20 had DH/TH lymphoma and a BOR rate of 40% (95% CI, 19-64). BOR rate for patients that were MYC(+) but non-DH/TH lymphoma was 48% (95% CI, 34-63).
In the TME analysis of baseline biopsy, a low frequency of tumor infiltrating CD3+ T cells (cutoff of ≤3%; n=16) was associated with shorter median DOR, PFS (2.2 months [95% CI, 0.92-2.8] and 4.2 months [95% Cl, 2.6-21], respectively) and OS (7 months [95% CI, 1.8-12] and 21 months [95% CI, 6.7-NE], respectively) compared with patients with ≥3% CD3+ T cells (n=64) (FIGS. 13A-13C). At month 6, only 2/16 (13%) of patients with <3% tumor-infiltrating CD3+ T cells in baseline tumors were responders compared to 23/36 (64%) responders with >3% tumor infiltrating CD3+ T cells. Patients with low or no (≤3%) tumor-infiltrating CD3+ T cells (n=16) in baseline tumor biopsies were enriched with non-responders (FIG. 22).
Patients with the highest frequency of LAG3+CD3+ cells out of the tumor infiltrating CD3+ T cell population (cutoff of >20%; n=12) at baseline were mostly non-responders at Month 3 (FIG. 23) and all 12 patients with >20% LAG3+CD3+ cells (out of the tumor infiltrating CD3+ T cells) were non-responders at Month 6.
The probability of PFS in MYC(−) patients with normal LDH (n=16) was 81% at 6 months and stabilized at 75% starting at 12 months.

[3] = LAG3+CD3+ out of CD3+ T cells ≥20% at baseline (n=12)
[4] = MYC(+) DH/TH patients (n = 20), r/r DLBCL, JULIET
[5] = MYC(+) Non-DH/TH patients (n = 50), r/r DLBCL, JULIET
[6] = MYC(−) patients (n = 38), r/r DLBCL, JULIET
[7] = baseline tumor infiltrating CD3+ T cells ≤3% (n=16)
[8] = of patients with a CR at 6 months
[9] = patients with <20% LAG3+CD3+ T cells (n=68)
[10] = patients with ≥3% CD3+ T cells (n=64)

4-(4-{[2-(4-chlorophenyl)-4,4-dimethylcyclohex-1-en-1-yl]methyl}piperazin-1-yl)-N-(3-nitro-4-{[(oxan-4-yl)methyl]amino}benzenesulfonyl)-2-{1H-pyrrolo[2,3162yridinedin-5-yloxy}benzamide [venetoclax]
tumor growth (tumor volume by caliper) [1]: slowed tumor growth

Tisagenlecleucel
PFS ([2]; 24 month): 33%
PFS ([2]; 42 month): 31%
median duration of response (DOR) ([2]; 61 patients with a response, 95% CI, 10-NE): not reached
median OS [2, 3]: 4.3 months
median PFS [2, 3]: 2.1 months
Best Overall Response (BOR), % (95% CI) [2, 4]: 40 (19-64) %
Response at Month 3 (M3), % (95% CI) [2, 4]: 20 (6-44) %
Best Overall Response (BOR), % (95% CI) [2, 5]: 48 (34-63) %
Response at Month 3 (M3), % (95% CI) [2, 5]: 36 (23-51) %
median DOR ([2]; MYC(+) patients): 19 months
median OS ([2]; MYC(+) patients): 7.8 months
median PFS ([2]; MYC(+) patients): 2.5 months
Best Overall Response (BOR), % (95% CI) ([2]; MYC(+) patients (n = 73)): 44 (32-56) %
Response at Month 3 (M3), % (95% CI) ([2]; MYC(+) patients (n = 73)): 30 (20-42) %
BOR rate ([2]; MYC(+) patients with DH/TH lymphoma (n=20)): 40%
patients CR/PR by month 6 ([2]; MYC(+) patients, 18/73): 25%
median DOR ([2]; MYC(−) patients): not reached
median OS ([2]; MYC(−) patients): 21 months
median PFS ([2]; MYC(−) patients): 6.2 months
Best Overall Response (BOR), % (95% CI) ([2]; MYC(−) patients (n = 38)): 63 (46-78) %
Response at Month 3 (M3), % (95% CI) ([2]; MYC(−) patients (n = 38)): 50 (33-67) %
Best Overall Response (BOR), % (95% CI) [2, 6]: 63 (46-78) %
Response at Month 3 (M3), % (95% CI) [2, 6]: 50 (33-67) %
DOR plateau phase ([2]; MYC(−) patients (n=24), starting at 6 months): 79%
probability of PFS ([2]; at 6 months): 81%
probability of PFS ([2]; stabilized starting at 12 months): 75%
patients CR/PR by month 6 ([2]; MYC(−) patients, 18/38): 47%
median OS ([2]; all 115 infused patients): 11.1 months
patients estimated to maintain the response at 36 months ([2]; among patients who were in CR at 6 months): 86%
relapse-free probability ([2]; among the 61 patients with a response, at 24 and 30 months): 60.4%
responses across B-cell lymphoma subsets (MYC positive, MYC negative, DH/TH) ([2]; at 1 month post-treatment): comparable
Survival probability ([2]; at 12 months): 48.2%
Survival probability ([2]; at 24 months): 40.4%
Survival probability ([2]; at 36 months): 36.2%
median OS [2, 7]: 7 months
median PFS [2, 7]: 2.2 months
safety signals ([2]; median follow-up 40.3 months): No new safety signals
patients with a relapse after 12 months [2, 8]: 1
patients with relapses after 6 months [2, 8]: 3
BOR rate ([2]; patients MYC(+) but non-DH/TH lymphoma): 48%
patients maintaining longer than a 6 month response ([2]; patients identified as MYC positive by IHC): less than 75%
responders at month 6 ([2]; patients with <3% tumor-infiltrating CD3+ T cells in baseline tumors, 2/16): 13%
median OS [2, 9]: 21 months
median PFS [2, 9]: 4.2 months
responders at month 6 ([2]; patients with >3% tumor infiltrating CD3+ T cells, 23/36): 64%
patients with complete response (CR) with OS benefit ≥20 months ([2]; patients with CR): 80%
median OS ([2]; patients with CR (n=37) or PR (n=7) at M3): not reached
PFS and OS compared with other patients ([2]; patients with DH/TH lymphoma): shorter progression free survival (PFS) and overall survival (OS)
response rate at M3 ([2]; patients with DH/TH lymphoma): 20%
relapse frequency ([2]; patients with DH/TH lymphomas and high MYC expression, at 3 months and 6 months): appeared to relapse more frequently
response rate at M3 ([2]; patients with MYC(+) but non-DH/TH lymphoma): 36%
median OS [2, 10]: 21 months
median PFS [2, 10]: 4.2 months
patients who were non-responders at Month 6 ([2]; the 12 patients with >20% LAG3+CD3+ cells out of tumor infiltrating CD3+ T cells): 12
